Data published in US8119624B2, “Fused phenyl amido heterocyclic compounds” (Pfizer Inc., priority 2006, dated 2012).
Where two headings read alike, the source gives them in different places.

Biological target: T1, Full-length glucokinase (beta cell isoform) (Homo sapiens, UniProt P35557)
T1 construct: Full-length glucokinase (beta cell isoform) was His-tagged at N-terminus; His tag (N); made in house
T1 sequence (P35557 1-465): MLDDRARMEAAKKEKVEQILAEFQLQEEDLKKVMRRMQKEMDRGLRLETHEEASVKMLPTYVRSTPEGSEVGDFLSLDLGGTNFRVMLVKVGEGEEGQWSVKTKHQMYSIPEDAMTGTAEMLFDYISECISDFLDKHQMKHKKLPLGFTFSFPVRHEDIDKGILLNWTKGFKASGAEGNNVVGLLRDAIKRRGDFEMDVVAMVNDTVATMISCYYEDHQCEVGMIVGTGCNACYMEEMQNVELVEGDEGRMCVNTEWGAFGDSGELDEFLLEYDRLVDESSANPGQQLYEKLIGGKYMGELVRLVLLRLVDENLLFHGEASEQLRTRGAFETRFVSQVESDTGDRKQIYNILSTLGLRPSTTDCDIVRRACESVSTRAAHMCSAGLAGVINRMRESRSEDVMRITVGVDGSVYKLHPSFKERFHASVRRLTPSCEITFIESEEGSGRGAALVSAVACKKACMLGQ
Test: Glucokinase biochemical assay (PK/LDH-coupled, NADH depletion at 340 nm): % activation, EC50, % max activation
Details: 5 mM glucose; for activation at 10 µM: read-out: % Activation at 10 uM; for EC50: GK activation, read-out: EC50; for Emax: fitted maximum activation, read-out: % Max Activation
Outline: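 Activation expressed as (Va/Vo−1)×100, where initial rates with and without compound come from NADH depletion at 340 nm over 200–900 s. Enzyme is His-tagged human beta-cell GK, full length, run at room temperature in HEPES buffer with 1 mM ATP and 5 mM glucose. DMSO 1%.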

[1] = 10 uM compound, % Activation=(Va/Vo−1)×100

| SMILES | activation at 10 µM [1] | EC50 | Emax | activation at 10 µM (compound at 10 uM, 1 mM ATP, room temperature) |
| --- | --- | --- | --- | --- |
| Cn1ccc(NC(=O)c2cc(Oc3ccc(S(C)(=O)=O)cc3)c3cc(C(F)F)oc3c2)n1 [Example 322, 2-(Difluoromethyl)-N-(1-methyl-1H-pyrazol-3-yl)-4-[4-(methylsulfonyl)-phenoxy]-1-benzofuran-6-carboxamide] | 161% | 6300 nM | 235% |  |
| COCc1cc2c(Oc3ccc(S(C)(=O)=O)cc3)cc(C(=O)Nc3cnn(C)n3)cc2o1 [Example 313, 2-(Methoxymethyl)-4-[4-(methylsulfonyl)phenoxy]-N-(2-methyl-2H-1,2,3-triazol-4-yl)-1-benzofuran-6-carboxamide] | 131% | 920 nM | 155% |  |
| COCc1cc2c(Oc3ccc(S(C)(=O)=O)cc3)cc(C(=O)Nc3cnc(OC)cn3)cc2o1 [Example 312, 2-(Methoxymethyl)-N-(5-methoxypyrazin-2-yl)-4-[4-(methylsulfonyl)phenoxy]-1-benzofuran-6-carboxamide] | 112% | 490 nM | 121% |  |
| Cn1ncc(NC(=O)c2cc(Oc3ccc(-c4ncon4)cc3)c3c(c2)OC(C)(C)C3)n1 [Example 188, 2,2-Dimethyl-4-(4-[1,2,4]oxadiazol-3-yl-phenoxy)-2,3-dihydro-benzofuran-6-carboxylic acid (2-methyl-2H-[1,2,3]triazol-4-yl)-amide] | 198% | 620 nM | 230% |  |
| CN(C)C(=O)c1cc2c(Oc3ccc(S(C)(=O)=O)cc3)cc(C(=O)Nc3cnn(C)n3)cc2o1 [Example 288, N2,N2-Dimethyl-4-[4-(methylsulfonyl)phenoxy]-N6-(2-methyl-2H-1,2,3-triazol-4-yl)-1-benzofuran-2,6-dicarboxamide] | 161% | 1700 nM | 188% |  |
| CCOc1cc(C(=O)Nc2ccn(C)n2)cc2c1CC(C)(C)O2 [Example 92, 4-Ethoxy-2,2-dimethyl-2,3-dihydro-benzofuran-6-carboxylic acid (1-methyl-1H-pyrazol-3-yl)-amide] | 87% | 9500 nM | 164% |  |
| COCC1(C)Cc2c(Oc3ccc(S(C)(=O)=O)cc3)cc(C(=O)Nc3ccn(C)n3)cc2O1 (stereo not drawn) [Example 228, 4-(4-Methanesulfonyl-phenoxy)-2-methoxymethyl-2-methyl-2,3-dihydro-benzofuran-6-carboxylic acid (1-methyl-1H-pyrazol-3-yl)-amide] | 151% | 500 nM | 156% |  |
| Cc1cc2c(Oc3ccc(S(C)(=O)=O)cc3)cc(C(=O)Nc3ccc4c(n3)CCC4)cc2o1 [Example 254, N-(6,7-Dihydro-5H-cyclopenta[b]pyridin-2-yl)-2-methyl-4-(4-(methylsulfonyl)-phenoxy)benzofuran-6-carboxamide] | 53.3% | 3400 nM | 71% |  |
| Cn1ccc(NC(=O)c2cc(Oc3cnc(C(=O)N4CCC4)nc3)c3c(c2)OC(C)(C)C3)n1 [Example 172, 4-[2-(Azetidine-1-carbonyl)-pyrimidin-5-yloxy]-2,2-dimethyl-2,3-dihydro-benzofuran-6-carboxylic acid (1-methyl-1H-pyrazol-3-yl)-amide] | 186% | 480 nM | 169% |  |
| Cn1ccc(NC(=O)c2cc(Oc3ccc(S(=O)(=O)C4CC4)c(F)c3)c3c(c2)OC(C)(C)C3)n1 [Example 141, 4-(4-Cyclopropanesulfonyl-3-fluoro-phenoxy)-2,2-dimethyl-2,3-dihydro-benzofuran-6-carboxylic acid (1-methyl-1H-pyrazol-3-yl)-amide] | 173% | 110 nM | 216% |  |
| CN(C)Cc1ccc(Oc2cc(C(=O)Nc3ccn(C)n3)cc3c2CC(C)(C)O3)c(F)c1 [Example 39, 4-(4-Dimethylaminomethyl-2-fluoro-phenoxy)-2,2-dimethyl-2,3-dihydro-benzofuran-6-carboxylic acid(1-methyl-1H-pyrazol-3-yl)-amide] | 105% | 2000 nM | 133% |  |
| Cn1ccc(NC(=O)c2cc(OCc3cc(O)nc(C4CC4)n3)c3c(c2)OC(C)(C)C3)n1 [Example 95, 4-(2-Cyclopropyl-6-hydroxy-pyrimidin-4-ylmethoxy)-2,2-dimethyl-2,3-dihydro-benzofuran-6-carboxylic acid (1-methyl-1H-pyrazol-3-yl)-amide] | 143% | 625 nM | 145% |  |
| CC1(C)Cc2c(Oc3ccc(S(C)(=O)=O)cc3)cc(C(=O)Nc3cnccn3)cc2O1 [Example 17, 4-(4-Methanesulfonyl-phenoxy)-2,2-dimethyl-2,3-dihydrobenzofuran-6-carboxy-lic acid pyrazin-2-ylamide] | 161% | 510 nM | 165% |  |
| Cn1ccc(NC(=O)c2cc(Oc3ccc(-c4ncon4)c(F)c3)c3c(c2)OC(C)(C)C3)n1 [Example 185, 4-(3-Fluoro-4-[1,2,4]oxadiazol-3-yl-phenoxy)-2,2-dimethyl-2,3-dihydro-benzofuran-6-carboxylic acid (1-methyl-1H-pyrazol-3-yl)-amide] | 248% | 104 nM | 227% |  |
| Cc1ccc(NC(=O)c2cc(Oc3ccc(C(=O)N(C)C)cc3)c3c(c2)OC(C)(C)C3)nc1 [Example 150, 4-(4-Dimethylcarbamoyl-phenoxy)-2,2-dimethyl-2,3-dihydro-benzofuran-6-carboxylic acid (5-methyl-pyridin-2-yl)-amide] | 39.1% | 110 nM | 55% |  |
| Cn1ccc(NC(=O)c2cc(Oc3ccc(C(=O)NCCF)c(F)c3)c3c(c2)OC(C)(C)C3)n1 [Example 75, 4-[3-Fluoro-4-(2-fluoro-ethylcarbamoyl)-phenoxy]-2,2-dimethyl-2,3-dihydro-benzofuran-6-carboxylic acid(1-methyl-1H-pyrazol-3-yl)-amide] | 193% | 260 nM | 189% |  |
| Cn1ccc(NC(=O)c2cc(Oc3cc(F)c(C(=O)N4CCC4)c(F)c3)c3c(c2)OC(C)(C)C3)n1 [Example 110, 4-[4-(Azetidine-1-carbonyl)-3,5-difluoro-phenoxy]-2,2-dimethyl-2,3-dihydro-benzofuran-6-carboxylic acid (1-methyl-1H-pyrazol-3-yl)-amide] | 139% | 72 nM | 131% |  |
| COc1ccc(CC(C)Oc2cc(C(=O)Nc3ccn(C)n3)cc3c2CC(C)(C)O3)cc1 (stereo not drawn) [Example 79, 4-[2-(4-Methoxy-phenyl)-1-methyl-ethoxy]-2,2-dimethyl-2,3-dihydro-benzofuran-6-carboxylic acid (1-methyl-1H-pyrazol-3-yl)-amide] | 148% | 2100 nM | 171% |  |
| Cc1ccc(NC(=O)c2cc(Oc3ccc(S(C)(=O)=O)cc3)c3c(c2)C(=O)N(C(C)C)C3)nc1 [Example 383, 2-Isopropyl-N-(5-methylpyridin-2-yl)-7-(4-(methylsulfonyl)-phenoxy)-3-oxoisoindoline-5-carboxamide] |  |  |  | 32.6% |
| CCc1cc2c(Oc3ccc(S(C)(=O)=O)cc3)cc(C(=O)Nc3ccn(C)n3)cc2o1 [Example 275, 2-Ethyl-N-(1-methyl-1H-pyrazol-3-yl)-4-[4-(methylsulfonyl)-phenoxy]-1-benzofuran-carboxamide] | 211% | 2600 nM | 210% |  |
| Cc1ccc(NC(=O)c2cc(Oc3ccc(C(=O)N(C)C)cc3)c3c(C)csc3c2)nc1 [Example 353, 4-{4-[(Dimethylamino)carbonyl]phenoxy}-3-methyl-N-(5-methylpyridin-2-yl)-1-benzothiophene-6-carboxamide] | 3.4% |  |  |  |
| CCc1ccc(NC(=O)c2cc(Oc3ccc(S(C)(=O)=O)cc3)c3cc(C)oc3c2)nc1 [Example 265, N-(5-Ethylpyridin-2-yl)-2-methyl-4-(4-(methylsulfonyl)-phenoxy)benzofuran-6-carboxamide] | 94.2% | 1700 nM | 74% |  |
| CCNC(=O)c1ncc(Oc2cc(C(=O)Nc3ccn(C)n3)cc3c2CC(C)(C)O3)cc1NCC [Example 175, 5-[2,2-Dimethyl-6-(1-methyl-1H-pyrazol-3-ylcarbamoyl)-2,3-dihydro-benzofuran-4-yloxy]-3-ethylamino-pyridine-2-carboxylic acid ethylamide] | 233% | 770 nM | 251% |  |
| Cn1ccc(NC(=O)c2cc(Oc3ccc(C(=O)N4CC(F)(F)C4)cc3)c3c(c2)OC(C)(C)C3)n1 [Example 50, 4-[4-(3,3-Difluoro-azetidine-1-carbonyl)-phenoxy]-2,2-dimethyl-2,3-dihydro-benzofuran-6-carboxylic acid(1-methyl-1H-pyrazol-3-yl)-amide] | 146% | 564 nM | 149% |  |
| Cc1ccc(NC(=O)c2cc(OC3CN(C(=O)N(C)C)C3)c3cc(C)oc3c2)nc1 [Example 324, N,N-Dimethyl-3-[(2-methyl-6-{[(5-methylpyridin-2-yl)amino]-carbonyl}-1-benzofuran-4-yl)oxy]azetidine-1-carboxamide] | 18.2% |  |  |  |
